Legend:
Rac1 [1] = assay: Rac1 activation assay (G-LISA); type: cell-based; conditions: cells incubated 2 minutes at 1 and 10 μg/mL
Experimental: Cell cultures were incubated with each tested compound for 2 minutes at concentrations of 1 and 10 μg/mL, after which the cells were tested for Rac1 activation using a G-LISA activation assay. The cells were lysed and the lysates introduced into wells containing Rac-GTP-binding protein, then sequentially incubated with anti-Rac1 antibody and a horseradish peroxidase-linked secondary antibody. The amount of horseradish peroxidase was then quantitated to evaluate the Rac1 activation potency of each compound studied.

[2] = molecular target: T1, PTPRS catalytic domains (D1D2) (Homo sapiens, UniProt Q13332); assay: In vitro phosphatase assay (modified Malachite Green Assay); type: biochemical; conditions: for IC50: 50 nM PTPRS, 100 uM Tyr Phosphopeptide, 15 min preincubation
T1 construct: The two interacellular catalytic domains (D1D2) of PTPRS were cloned into a pET28a vector; made in house; host or cells: E. coli BL21
T1 sequence (Q13332 1304-1948 limits assumed): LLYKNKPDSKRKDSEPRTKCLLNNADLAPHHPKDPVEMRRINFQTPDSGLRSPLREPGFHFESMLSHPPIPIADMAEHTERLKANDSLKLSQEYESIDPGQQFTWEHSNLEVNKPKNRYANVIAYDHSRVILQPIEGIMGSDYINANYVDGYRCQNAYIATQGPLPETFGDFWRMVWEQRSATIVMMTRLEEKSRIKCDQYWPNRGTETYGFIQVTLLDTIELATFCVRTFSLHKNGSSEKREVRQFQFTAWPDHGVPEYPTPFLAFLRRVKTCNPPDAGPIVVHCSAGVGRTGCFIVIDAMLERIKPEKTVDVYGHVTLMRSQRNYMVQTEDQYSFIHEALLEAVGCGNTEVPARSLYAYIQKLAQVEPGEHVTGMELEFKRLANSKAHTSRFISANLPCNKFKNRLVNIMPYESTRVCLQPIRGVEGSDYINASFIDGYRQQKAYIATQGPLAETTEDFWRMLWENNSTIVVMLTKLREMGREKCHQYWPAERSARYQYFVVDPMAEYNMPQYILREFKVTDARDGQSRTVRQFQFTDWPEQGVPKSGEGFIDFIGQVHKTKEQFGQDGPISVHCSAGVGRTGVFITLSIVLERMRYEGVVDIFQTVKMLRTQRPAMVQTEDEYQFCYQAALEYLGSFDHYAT
Experimental: The two interacellular catalytic domains (D1D2) of PTPRS were cloned into a pET28a vector and overexpressed in E. coli BL21 and purified as described in Jeon T J, et al. Structure of the Catalytic Domain of Protein Tyrosine Phosphatase Sigma in the Sulfenic Acid Form. Molecules and Cells. 2013; 36(1):55-61. doi:10.1007/s10059-013-0033-x. Enzymatic activity of PTPRS was assayed using a modified version of the Malachite Green Assay (described in Lorenz U. Protein Tyrosine Phosphatase Assays. Current protocols in immunology/edited by John E Coligan. [et al]. 2011; CHAPTER:Unit-11.7. doi:10.1002/0471142735.im1107s93) and the Tyrosine Phosphatase Assay Kit (Promega Coorperation). Unless stated otherwise, standard assays were carried out using 50 nM PTPRS protein in 1× Buffer (10 mM Tris, 5 mM MgCl2, 10 mM NaCl, 0.02% Tween) and Tyr Phosphopeptide as substrate (100 uM for FIG. 1 and 50-1200 uM in FIG. 2). Catalytic domains D1D2 were preincubated with the test compound or control for 15 min in the wells of a 96 well plate before the addition of 100 uM Tyr Phosphopeptide (DADA(pY)LIPQQG).
For IC50 determination, rates normalized relative to uninhibited controls (DMSO) were plotted against compound concentration and fitted using a four-parameter nonlinear regression curve fit ((y=[(A−D) (1+{xC−1}B)−1]+D), (Prism 6.0, Graphpad Software). For mechanism studies and determination of the enyzme's Km and Vmax, data were analyzed using a nonlinear regression fit according to classical Mechaelis-Menten kinetics model Y=Vmax*X/(Km+X) (Prism 6.0, Graphpad Software).

Rac1 [3] = assay: Rac1 signaling in HSCs (BM KSL cells expressing Rac1 GTP, FIG. 1); type: cell-based
Source text: (§1) A) CFU-GEMMs produced by TSF media vs. TSF+GJ001 (p=0.001). B) Percentage of BM KSL cells expressing Rac1 GTP (p=0.008). C) Survival of mice irradiated with 750 cGy followed by treatment with DJ001 or vehicle (p=0.0007). D) % BM KSL cells (blue) and % ckit^+sca-1^−lin^− progenitors (gray) at day+21 in irradiated mice.

irradiated mice = assay: Survival and HSC regeneration of irradiated mice; type: in vivo; conditions: for Survival of irradiated mice: irradiated mice (DJ001: 750 cGy, lethal dose)
Source text: as §1

[4] = system: hematopoietic colony formation; assay: Hematopoietic colony formation; type: cell-based

IC50 [2] [nM] | SMILES | Rac1 Activation (Rac1 [1]) | also measured
 | O=C(/C=C\Nc1cccc(F)c1)c1ccccc1 [DJ002] | no | 
 | Cc1cccc(N/C=C\C(=O)c2ccccc2)c1 [DJ004] | yes | 
 | COc1cccc(N/C=C\C(=O)c2ccccc2)c1 [DJ005] | no | 
3030 | CC(=O)c1cccc(N/C=C\C(=O)c2ccccc2)c1 [DJ006] | no | 
 | O=C(/C=C\Nc1cccc(-c2ccccc2)c1)c1ccccc1 [DJ007] | no | 
 | CN(C)c1cccc(N/C=C\C(=O)c2ccccc2)c1 [DJ008] | no | 
1370 | O=C(/C=C\Nc1cc(F)cc(F)c1)c1ccccc1 [DJ009] | yes | 
 | Cc1cc(C)cc(N/C=C\C(=O)c2ccccc2)c1 [DJ011] | yes | 
 | COc1cc(N/C=C\C(=O)c2ccccc2)cc(OC)c1 [DJ012] | yes | 
 | O=C(/C=C\Nc1ccccc1)c1ccccc1 [DJ013] | yes | 
 | CC(C)(C)[Si](C)(C)Oc1cccc(N/C=C\C(=O)c2ccccc2)c1 [DJ014] | yes | 
1390 | O=C(/C=C\Nc1cccc(O)c1)c1ccccc1 [DJ015] | yes | 
 | CN(C)S(=O)(=O)c1cccc(N/C=C\C(=O)c2ccccc2)c1 [DJ016] | no | 
 | CCCCN/C=C\C(=O)c1ccccc1 [DJ017] | no | 
 | O=C(/C=C\NCc1ccco1)c1ccccc1 [DJ018] | no | 
 | CC(C)(C)N/C=C\C(=O)c1ccccc1 [DJ019] | no | 
910 | O=C(c1ccccc1)c1ccccc1Nc1cccc([N+](=O)[O-])c1 [DJ027] |  | 
1830 | O=C(/C=C\Nc1cc(C(F)(F)F)cc(C(F)(F)F)c1)c1ccccc1 [DJ030] |  | 
950 | Cc1cccc(C(=O)/C=C\Nc2cccc(C(F)(F)F)c2)c1 [DJ033] |  | 

SMILES | IC50 [2] [nM] | Rac1 Activation (Rac1 [1]) | also measured
O=C(/C=C\Nc1cccc([N+](=O)[O-])c1)c1ccccc1 [DJ001] | 1430 | yes | Mechanism of inhibition (substrate titration of PTPσ, Vmax and Km) ([2]; substrate titration, Michaelis-Menten fit): classical noncompetitive inhibitor; Rac1 signaling in HSCs (Rac1 [3]): activates Rac1 signaling in HSCs; HSC regeneration in irradiated mice (irradiated mice; irradiated mice): accelerates HSC regeneration in irradiated mice; Survival of irradiated mice (irradiated mice): dramatically increases mice survival following lethal dose irradiation
O=C(/C=C\Nc1cccc(C(F)(F)F)c1)c1ccccc1 [DJ003] | 1060 | yes | Survival of irradiated mice (irradiated mice): improves survival of irradiated mice; Hematopoietic colony formation [4]: increases hematopoietic colony formation

— patent publication US10822299B2, “Compounds and methods for hematopoietic regeneration” (The Regents of the University of California, priority 2016, dated 2020)
